# Values quoted from earlier work in article PMC5571359, “Screening the Medicines for Malaria Venture Pathogen Box across Multiple Pathogens Reclassifies Starting Points for Open-Source Drug Discovery” (Antimicrobial Agents and Chemotherapy, 2017).
# System: HepG2
# Conditions: HepG2; ref PBox supporting information; cited from earlier work
row,Compound,HepG2 PBox CC20
1,CC(C)(C)n1nc(Cc2cccc3ccccc23)c2c(N)ncnc21 [MMV676599],19 µM
2,COc1cc(NC(=O)Cc2nn(C)c(=O)c3ccccc23)ccc1Cl [MMV676053],>80 µM
3,CC(C)C(Oc1cccc2ccccc12)C(=O)O (stereo not shown) [MMV676191],>80 µM
4,Clc1ccc(-n2cc(COc3ccnc4ccccc34)nn2)cc1 [MMV675994],13.6 µM
5,Nc1ncnc2c1ncn2C[C@@H](O)[C@@H](O)C(=O)O [MMV689255],>80 µM

# Same assay, conditions: HepG2 CC20; ref Pathogen Box supporting information; cited from earlier work
row,Compound,HepG2 PBox CC20 μMc
1,O=C(Nc1nnc(S)s1)c1cc(Br)ccc1Cl [MMV676492],>80 µM

# Same assay, conditions: cited from earlier work
Compound,HepG2 PBox CC20 μMc,CC50
CC1(C)OB(O)c2ccc(C3=NOC(c4cc(Cl)c(F)c(Cl)c4)(C(F)(F)F)C3)cc21 (stereo not shown) [MMV687775],15.4 µM,
Cc1cc(O)nc(-n2nc(C)cc2C)n1 [MMV393995],,60.7 µM
O=C1O[C@@H](COc2ccon2)CN1c1cc(F)c(C2=CCN(Cc3ccccc3)CC2)c(F)c1 [MMV687813],,30.4 µM
Cc1nn(Cc2ccccc2)c(Cl)c1C(=O)NC1CCCCCC1 [MMV063404],,> 100 µM
O=C1O[C@@H](CO)CN1c1cc(F)c(C2=CCN(Cc3ccccc3)CC2)c(F)c1 [MMV687729],,38.8 µM
"CN1CCC[C@@H]1CCO[C@](C)(c1ccccc1)c1ccc(Cl)cc1 [MMV637229, clemastine, reference compound]",9.3 µM,

# Same assay, conditions: read-out: HepG2 PBox CC50 µM; HepG2 cytotoxicity; ref PBox supporting information; cited from earlier work
row,Compound,CC50
1,CCCc1ccc(S(=O)(=O)Nc2ccc(CN3CCN(CC4CC4)CC3)cc2)cc1 [MMV688125],17.7 µM
2,O=C(NCCc1c[nH]c2ccccc12)c1cc2ccccc2oc1=O [MMV676539],> 100 µM
3,CC1COC2(CCN(c3nc(=O)c4cc(C(F)(F)F)cc([N+](=O)[O-])c4s3)CC2)O1 (stereo not shown) [MMV676603],> 100 µM
4,CCCn1c(CNc2ccccc2O)nc2ccccc21 [MMV676445],84.1 µM
5,COc1ccc2nc(C)cc(OCC(=O)NCc3ccccc3)c2c1 [MMV687189],> 100 µM
6,COc1ccc(C2(C(=O)Nc3ccc(Br)cc3)CCCC2)cc1 [MMV200748],> 100 µM
7,O=C(Nc1nnc(-c2ccc(Cl)s2)o1)c1ccc(Cl)s1 [MMV676501],50.1 µM
8,O=C(NCc1cc(Cl)cc(Cl)c1)c1c(C(F)(F)F)nc2ccccn12 [MMV687699],38.3 µM
9,N#Cc1ccc(-c2ccc(OCC(N)=O)cc2)cc1 [MMV053220],> 100 µM
10,CCOC(=O)NC(=O)c1ccsc1NC(=O)c1nc2ccccc2s1 [MMV090930],47 µM
11,CC1=NN(c2nc3ccccc3s2)C(=O)C1Cc1cccc2ccccc12 (stereo not shown) [MMV676558],21.9 µM
12,COc1ccc(-c2nc(-c3cccc(NC(=O)Cc4ccc(F)cc4)c3)no2)cc1OC [MMV676571],> 100 µM
13,Cc1cccc(Cn2ccc(NC(=O)c3ccc4c(c3)OCO4)n2)c1 [MMV676386],> 100 µM
14,COc1ccc2nc(C)cc(OCC(=O)Nc3ccccc3OC)c2c1 [MMV687188],57.4 µM
15,O=C(C1CCN(c2cc(-n3cccc3)ncn2)CC1)N1CCc2ccccc2C1 [MMV687172],> 100 µM
16,O=C(c1cc2ccccc2o1)N1CCN(Cc2ccc3c(c2)OCO3)CC1 [MMV676520],> 100 µM
17,O=C(NC1=NCCS1)c1sc2cc(F)ccc2c1Cl [MMV676584],> 100 µM
18,COc1ccc(-c2cc(NC(=O)c3ccc(F)cc3Cl)ccc2OC)cc1 [MMV676526],> 100 µM
19,Cc1ccc2nc(Cl)c(CNCc3cccs3)cc2c1 [MMV676439],> 100 µM

row,Compound,CC50
1,CCc1ccc(S(=O)(=O)Nc2cc(CN3CCN(CCC(C)C)CC3)ccc2C)cc1 [MMV688124],27.4 µM
2,CCOC(=O)c1cc(-c2csc(Nc3c(C)cc(C)cc3C)n2)on1 [MMV676461],24.4 µM
3,Cc1ccc2oc(-c3cc(NC(=O)Cc4ccccc4)ccc3Cl)nc2c1 [MMV676509],83.6 µM
4,Cc1ccc(NC(=O)CC2COc3ccccc3O2)cc1Cl (stereo not shown) [MMV676431],66.7 µM
5,FC(F)(F)c1nnc2ccc(Cl)nn12 [MMV069458],> 100 µM
6,N#Cc1nc(-c2ccccc2)oc1S(=O)(=O)c1ccc(Cl)cc1 [MMV676412],2.2 µM
7,NC(=O)c1cc(Br)ccc1OCCOc1ccccc1 [MMV687243],> 100 µM
8,CCc1ccc([C@@H]2C[C@H](C(F)(F)F)n3ncc(C(=O)NCc4ccc(OC)cc4)c3N2)cc1 [MMV687180],50.6 µM
9,Cc1nc2ccccn2c1C(=O)NCc1ccc(Cl)cc1 [MMV012074],> 100 µM
10,CC(=O)NCC1CN(c2ccc(-c3ccc(CNCc4cn[nH]n4)cc3)c(F)c2)C(=O)O1 (stereo not shown) [MMV688327],> 100 µM
11,COc1cccc(OCC(=O)c2ccc(Br)cc2)c1 [MMV676379],> 100 µM
12,O=C(c1[nH]nc2c1CCCC2)N1CCN(Cc2ccc3c(c2)OCO3)CC1 [MMV676389],> 100 µM
13,CC(C)n1ncc2c(C(=O)NCC(c3cccs3)N3CCOCC3)cc(-c3ccccc3)nc21 (stereo not shown) [MMV676406],58 µM
14,CC1(COc2ccc(N3CCC(Oc4ccc(OC(F)(F)F)cc4)CC3)cc2)Cn2cc([N+](=O)[O-])nc2O1 (stereo not shown) [MMV688262],72.5 µM
15,Brc1c(-c2ccc3c(c2)OCO3)nc2ncccn12 [MMV676377],> 100 µM
16,Cc1cc(C)c2cc(C(=O)NC3CCCCCCC3)[nH]c2c1 [MMV687146],> 100 µM
17,Cc1cc(C)cc(COc2ccc3c(C)c(CCC(=O)O)c(=O)oc3c2C)c1 [MMV676476],> 100 µM
18,NC(=O)c1cc(-c2ccsc2)ccc1OCCOc1ccccc1 [MMV687138],> 100 µM
19,O=C(CCC1CCCCC1)Nc1cccc(-c2nnc(-c3ccco3)o2)c1 [MMV676589],> 100 µM

row,Compound,CC50
1,CC(C)(C(=O)Nc1ccc(F)cc1)n1cc(-c2ccccc2F)cn1 [MMV687239],> 100 µM
2,Cc1cc(Cl)ccc1NC(=O)CCc1ccc(S(=O)(=O)NCC(C)C)cc1 [MMV161996],> 100 µM
3,COc1cccc(OC)c1C(=O)Nc1ccc(Cl)c(-c2nc3ccccc3s2)c1 [MMV676472],> 100 µM
4,COc1ccc(Cn2cnc3c(-c4ccco4)nc(Cl)nc32)cc1 [MMV687170],> 100 µM
5,O=C(Nc1nnc(-c2ccc(Cl)cc2)o1)c1cccc(C(F)(F)F)c1 [MMV102872],9 µM
6,COc1ccc(Nc2ccccc2NC(=O)c2ccc(O)nc2)cc1 [MMV676554],42.5 µM
7,c1coc(CNc2nc(N3CCCCC3)nc3ccccc23)c1 [MMV676401],18.6 µM
8,O=C(Nc1cccnc1)c1c(O)c2cccc3c2n(c1=O)CC3 [MMV676395],> 100 µM
9,Cc1nnc(NCc2cccc(Cl)c2)c2ccccc12 [MMV676555],76 µM
10,CCC(Sc1nc2ccccc2o1)C(=O)Nc1nnc(C)s1 (stereo not shown) [MMV611037],> 100 µM
11,COc1ccc(OC(C)C(=O)Nc2ccc(Cl)cc2C)cc1 (stereo not shown) [MMV202458],> 100 µM
12,O=C(C1CCN(c2nnc(-n3cccc3)s2)CC1)N1CCC(Cc2ccccc2)CC1 [MMV676478],> 100 µM
13,CCc1c(C)nc(-n2nc(C)cc2NC(=O)c2ccccc2SC)[nH]c1=O [MMV676477],1.3 µM
14,Nc1ncnc2c1ncn2[C@@H]1O[C@H](COS(=O)(=O)NC(=O)c2ccccc2O)[C@@H](O)[C@H]1O [MMV687700],> 100 µM
15,CCCn1nnc(NC(=O)COc2ccc(C3CCCCC3)cc2)n1 [MMV676597],> 100 µM
16,Nc1c2c(nc3sc4c(c13)CCCC4)CCCC2 [MMV676588],34.9 µM
17,CCc1nc2ccccc2n1CC(O)COc1cc(C)ccc1Cl (stereo not shown) [MMV676449],43.2 µM
18,CCOc1ccc(OCC(=O)Nc2cc(C)cc(C)c2)cc1 [MMV676470],> 100 µM
19,COC(=O)c1c(NC(=O)c2c(F)c(F)c(F)c(F)c2F)sc2c1CCCCC2 [MMV461553],7.5 µM

# Same assay, conditions: read-out: HepG2 PBox CC50; HepG2; ref PBox supporting information; cited from earlier work
row,Compound,CC50
1,NCC(c1cccs1)S(=O)(=O)c1ccccc1 (stereo not shown) [MMV688557],35.4 µM
2,O=C(NCc1ccoc1)N1CCN(Cc2ccc3c(c2)OCO3)CC1 [MMV688553],> 100 µM
3,OC[C@H]1O[C@@H](n2c3ccc(Cl)cc3c3c(-c4cc5ccccc5o4)ncnc32)C(O)[C@H]1O (stereo partly shown) [MMV688921],10 µM
4,CC(=O)NCC1CN(c2ccc(-c3ccc(CO)cc3)c(F)c2)C(=O)O1 (stereo not shown) [MMV688508],> 100 µM
5,CC(C)(C)OC(=O)N1CCN(c2nccc(-c3ccc(-c4ccc(Cl)cc4)s3)n2)CC1 [MMV688416],> 50 µM
6,O=C(NCc1ccco1)N1CCN(Cc2ccc(Cl)s2)CC1 [MMV688555],> 100 µM
7,COC(=O)c1ccc(F)cc1NS(=O)(=O)c1cccc(-c2cnn(Cc3ccccc3)c2)c1 [MMV688350],10 µM

# Same assay, conditions: ref Pbox supporting information; cited from earlier work
row,Compound,HepG2 PBox CC20 μMc
1,Cc1nn(C(=O)Nc2cccc(C(F)(F)F)c2)c(C)c1Sc1ncccn1 [MMV688552],30.7 µM
2,Cc1ccccc1C(=O)N1N=C(Nc2ccccc2)SC1(C)C [MMV688771],8 µM
3,Cc1cc(OCC(=O)Nc2ccc(C(C)C)cc2)n(C)c(=O)c1C#N [MMV1198433],>80 µM
4,COC(=O)c1c(NC(=O)c2cc3ccccc3oc2=O)sc2c1CCN(Cc1ccccc1)C2 [MMV676480],12.3 µM
5,COCC(C)NC(=O)CSc1ncnc2sc(-c3ccccc3)cc12 (stereo not shown) [MMV676536],>80 µM
6,CC(C)(C)c1ccc(N[C@@H]2CCCC[C@H]2NC(=O)c2ccco2)cc1 [MMV675969],35.9 µM
7,CC(=O)N(CCN(C(=O)c1ccc(F)cc1)c1ccccc1)c1ccccc1 [MMV676064],39 µM
8,CCc1nc2ccc(C(=O)NCc3ccc4c(c3)OCO4)cn2c1N(C)Cc1cccs1 [MMV407539],18.6 µM
9,COc1ccc(N(CCc2cccc(C)n2)C(C)=O)cc1 [MMV675995],>80 µM
10,c1ccc(Oc2ccc(-c3cncc(-c4ccc5[nH]ccc5c4)n3)cc2)cc1 [MMV688178],25.7 µM
11,COc1ccc(-c2cnc3cnc(-c4cccc(OC(C)C)c4)cn23)cc1 [MMV688270],24.3 µM
12,Cn1ncc2c(N3CCOCC3)nc(NCCc3c[nH]c4ccccc34)nc21 [MMV676382],4.6 µM
13,CCCCc1ccc(NC(=O)Nc2ccc(O[C@H]3CCCC[C@@H]3N(C)c3ccccc3)c(F)c2)cc1 [MMV676063],5.8 µM
14,COc1ccc(N(CCc2cccc(C)n2)C(=O)C2CCCCC2)cc1 [MMV675996],>80 µM
15,Oc1c(I)cc(I)c2cccnc12 [MMV002817],2.5 µM
